Holding throughout (type): in vivo
The subject of test [1] is larvae of house mosquito (Culex pipiens pallens Coquillett). Briefly: Test Example 6: insecticidal activity to larvae of house mosquito. The conditions noted are these: 120 h. As for the experimental part:
Insecticidal activity to larvae of house mosquito (Culex pipiens pallens Coquillett).
Test method: In a 200-ml beaker, was placed together with a feed 100 ml of a test composition diluted with deionized water to 10 ppm concentration. The test composition was infested with 20 first-instar larvae of house mosquito and the beaker was covered with a sheet of Japanese paper. The beaker was kept in a constant temperature cabinet at 25° C. Five days after the treatment, the dead-and-survival was inspected to calculate the mortality.

Test [2] relates to larvae of green rice leafhopper (Nephotettix cincticeps Uhler). Kind of test: Test Example 5: activity against larvae of green rice leafhopper. The conditions noted are these: 168 h, 400 ppm, second-instar larvae, 25° C., seven days after treatment, read-out: Mortality. As for the experimental part: Activity against larvae of green rice leafhopper (Nephotettix cincticeps Uhler).
Testing method: Five rice seedlings of the 1.5 leaf age were dipped in a test composition of 400 ppm concentration for 30 seconds. After air-drying, the seedlings were placed in a glass tube containing 1 ml of water and infested with five second-instar larvae of green rice leafhopper. The glass tube was left standing in a constant temperature cabinet at 25° C. Seven days after the treatment, dead-and-survivalwas inspected to calculate the mortality (3-replication test).

In test [3] the test system is larvae of brown planthopper (Nilaparvata lugens Stahl). Briefly: Test Example 1: insecticidal activity against larvae of brown planthopper. The note with it: 120 h, third-instar larvae, 25° C., 5 days after treatment. How it is done: Insecticidal activity against larvae of brown planthopper (Nilaparvata lugens Stahl).
Testing method: Five rice seedlings of the 1.5 leaf age were dipped in a test composition of 400 ppm concentration for 30 seconds. After air-drying, the seedlings were placed in a glass tube containing 1 ml of water and infested with five third-instar larvae of brown planthopper. The glass tube was left standing in a constant temperature cabinet at 25° C. and 5 or 7 days after the treatment, dead-and-survival was observed. Mortality was calculated from the results of 3-replication test.

For test [4], the system named is two-spotted spider mite (Tetranychus urticae Koch). Kind of test: Test Example 3: activity to two-spotted spider mite. The note with it: 120 h, 1,000 ppm, 5 days after treatment. The source says: Activity to two-spotted spider mite (Tetranychus urticae Koch).
Testing method: Two-spotted spider mites were set free on the pot-planted soybean in a greenhouse. On the next day, a test composition of 1,000 ppm concentration was sprayed over the soybean by means of a spray gun. Two days or five days after the treatment, dead-and-survival was inspected to calculate the mortality.

From patent US4159328A, “Tetrahydro-1,3,5-thiadiazin-4-one derivative” (Nihon Nohyaku Co., Ltd., priority 1977, dated 1979) come the findings set out here.

For the compound `CCN=C1SCN(c2ccccc2)C(=O)N1CC` [Compound 125], in test [1], the mortality at 10 ppm is 80%.
`CCC(C)N=C1SCN(c2ccccc2)C(=O)N1CC` (centres unmarked) [Compound 130]: the mortality at 400 ppm in test [2] is 100%.
As to `CN=C1SCN(c2ccc(Cl)cc2)C(=O)N1C` [Compound 188, 2-Methylimino-3-methyl-5-(p-chlorophenyl)tetrahydro-1,3,5-thiadiazin-4-one], the mortality at 400 ppm in test [3] and in test [2] was 100% throughout. The compound also showed a mortality at 1000 ppm in test [4] of 90%. Further, in test [1], the mortality at 10 ppm came out at 100%.
In test [3], `CC(C)N1C(=O)N(c2ccccc2Cl)CSC1=NC(C)(C)CC(C)(C)C` [Compound 247] came in with a mortality at 400 ppm of 90%. Moreover, the mortality at 1000 ppm in test [4] was determined as 70%. In test [1], the mortality at 10 ppm stood at 100%.
The like results for `CC(C)N=C1SCN(c2cccc(C(F)(F)F)c2)C(=O)N1C` [Compound 259] were, in that order, 60%, 100% and 100%.
Turning to `CC(C)N=C1SCN(c2cccc(C(F)(F)F)c2)C(=O)N1C(C)C` [Compound 265, 2-Isopropylimino-3-isopropyl-5-(m-trifluoromethylphenyl)-tetrahydro-1,3,5-thiadiazin-4-one], the mortality at 10 ppm in test [1] was found to be 100%.
On to `CCC(C)N=C1SCN(c2cccc(C(F)(F)F)c2)C(=O)N1C(C)C` (centres unmarked) [Compound 269], for which the mortality at 400 ppm in test [3] came out at 80%. The compound further registered a mortality at 10 ppm in test [1] of 100%.
In test [3], `CC(C)N1C(=O)N(c2cccc(C(F)(F)F)c2)CSC1=NC(C)(C)C` [Compound 270] showed a mortality at 400 ppm of 60%. Also, in test [4], the mortality at 1000 ppm was 70%. The mortality at 10 ppm in test [1] is 100%.
The like results for `CCC(C)N1C(=O)N(c2cccc(C(F)(F)F)c2)CSC1=NC(C)(C)C` (centres unmarked) [Compound 274] were, in that order, 100%, 100% and 100%.
The compound `CCN1C(=O)N(c2ccc(F)cc2)CSC1=NC(C)(C)C` [Compound 280] had a mortality at 400 ppm in test [3] of 100%. This compound also registered a mortality at 1000 ppm in test [4] of 80%. This compound also registered a mortality at 10 ppm in test [1] of 90%.
The like results for `Cc1ccccc1N1CSC(=NC(C)C)N(C(C)C)C1=O` [Compound 301, 2-Isopropylimino-3-isopropyl-5-(o-tolyl)-tetrahydro-1,3,5-thiadiazin-4-one] were, in that order, 100%, 100% and 90%.
`Cc1ccccc1N1CSC(=NC2CCCCC2)N(C2CCCCC2)C1=O` [Compound 307, 2-cyclohexylimino-3-cyclohexyl-5-(o-tolyl)-tetrahydro-1,3,5-thiadiazin-4-one] displayed a mortality at 400 ppm in test [3] of 70%. Besides, the mortality at 1000 ppm in test [4] came to 70%. In test [1], this compound displayed a mortality at 10 ppm of 100%.
On to `Cc1ccccc1N1CSC(=NCc2ccccc2)N(Cc2ccccc2)C1=O` [Compound 308], for which the mortality at 400 ppm in test [3] came out at 60%. The compound further had a mortality at 1000 ppm in test [4] of 100%. This compound came in with a mortality at 10 ppm in test [1] of 100%.
`CCN1C(=O)N(c2ccc(C)cc2)CSC1=NC(C)(C)C` [Compound 312] had a mortality at 400 ppm in test [3] of 100%. The same compound yielded a mortality at 1000 ppm in test [4] of 100%. This compound came in with a mortality at 10 ppm in test [1] of 100%.
`C=CCN1C(=O)N(c2ccc(C)cc2)CSC1=NC(C)C` [Compound 315]: the mortality at 400 ppm in test [3] was determined as 100%. The mortality at 1000 ppm in test [4] was determined as 100%. In test [1], the mortality at 10 ppm amounted to 100%.
`CCCN1C(=O)N(c2ccc(C)cc2)CSC1=NC(C)(C)C` [Compound 317] displayed a mortality at 400 ppm in test [3] of 100%. The compound also had a mortality at 1000 ppm in test [4] of 100%. Besides, the mortality at 10 ppm in test [1] came out at 100%.
Consider `Cc1ccc(N2CSC(=NC(C)C)N(Cc3ccccc3)C2=O)cc1` [Compound 320], for which the mortality at 400 ppm in test [3] was 100%. The mortality at 1000 ppm in test [4] turned out to be 70%. Besides, the mortality at 10 ppm in test [1] turned out to be 70%.
On to `Cc1ccc(N2CSC(=NCc3ccccc3)N(Cc3ccccc3)C2=O)cc1` [Compound 321, 2-Benzylimino-3-benzyl-5-(p-tolyl)-tetrahydro-1,3,5-thiadiazin-4-one], for which, in test [3], the mortality at 400 ppm turned out to be 85%. In test [4], the mortality at 1000 ppm was determined as 70%. In addition, the mortality at 10 ppm in test [1] amounted to 70%.
Regarding `CN=C1SCN(c2cccc(C)c2C)C(=O)N1C` [Compound 381], the mortality at 400 ppm in test [3] came to 60%. The same compound displayed a mortality at 1000 ppm in test [4] of 70%.
The compound `CCN1C(=O)N(c2cccc(C)c2C)CSC1=NC1CCCCC1` [Compound 382, 2-cyclohexylimino-3-ethyl-5-(2,3-dimethylphenyl)tetrahydro-1,3,5-thiadiazin-4-one] gave a mortality at 400 ppm in test [3] of 80%. Besides, in test [4], the mortality at 1000 ppm was 100%.
With `Cc1cccc(N2CSC(=NC(C)C)N(C(C)C)C2=O)c1C` [Compound 383], the mortality at 400 ppm in test [3] amounted to 100%. Also, the mortality at 1000 ppm in test [4] came out at 100%.
`Cc1cccc(N2CSC(=NC(C)(C)C)N(C(C)C)C2=O)c1C` [Compound 384, 2-t-butylimino-3-isopropyl-5-(2,3-dimethylphenyl)-tetrahydro-1,3,5-thiadiazin-4-one] yielded a mortality at 400 ppm in test [3] of 100%. In test [4], this compound displayed a mortality at 1000 ppm of 100%.
In test [3], `CCC(C)N1C(=O)N(c2cccc(C)c2C)CSC1=NC(C)(C)C` (centres unmarked) [Compound 385] displayed a mortality at 400 ppm of 100%. This compound returned a mortality at 1000 ppm in test [4] of 100%.
For `Cc1cc(Cl)ccc1N1CSC(=NC(C)(C)C)N(C(C)C)C1=O` [Compound 387, 2-t-butylimino-3-isopropyl-5-(2-methyl-4-chlorophenyl)-tetrahydro-1,3,5-thiadiazin-4-one], the mortality at 400 ppm in test [3] worked out at 100%. Also, in test [4], the mortality at 1000 ppm worked out at 100%.
Take `Cc1cccc(C)c1N1CSC(=NC(C)(C)C)N(C(C)C)C1=O` [Compound 388, 2-t-butylimino-3-isopropyl-5-(2,6-dimethylphenyl)tetrahydro-1,3,5-thiadiazin-4-one]: in test [3], the mortality at 400 ppm stood at 100%. In test [4], the mortality at 1000 ppm is 100%.
For the compound `CCN=C1SCN(c2c(C)cccc2C)C(=O)N1CC` [Compound 390], in test [3], the mortality at 400 ppm is 60%. Moreover, the mortality at 1000 ppm in test [4] was 80%.
The like results for `C=CCN=C1SCN(c2c(CC)cccc2CC)C(=O)N1CC=C` [Compound 394] were, in that order, 70% and 80%.
The corresponding values for `CCC(C)N=C1SCN(c2ccc(Cl)cc2Cl)C(=O)N1C(C)CC` (centres unmarked) [Compound 400] are 100% and 70%.
The like results for `CCC(C)N1C(=O)N(c2ccc(Cl)cc2Cl)CSC1=NC(C)(C)C` (centres unmarked) [Compound 401] were, in that order, 100% and 70%.
Take `CC(C)N=C1SCN(c2cccc(Cl)c2Cl)C(=O)N1C(C)C` [Compound 402]: in test [3], the mortality at 400 ppm is 80%. In test [4], this compound displayed a mortality at 1000 ppm of 100%.
Compound `CC(C)N=C1SCN(c2cc(Cl)cc(Cl)c2)C(=O)N1C(C)C` [Compound 406] had a mortality at 400 ppm in test [3] of 80%. This compound had a mortality at 1000 ppm in test [4] of 60%.
In turn, `CC(C)N1C(=O)N(c2cc(Cl)cc(Cl)c2)CSC1=NC(C)(C)C` [Compound 407] had a mortality at 400 ppm in test [3] of 100%. Further, in test [4], the mortality at 1000 ppm is 100%.
Turning to `CC(C)N1C(=O)N(c2cc(Cl)cc(Cl)c2)CSC1=NC(C)(C)CC(C)(C)C` [Compound 409], the mortality at 400 ppm in test [3] is 60%. For the same compound, the mortality at 1000 ppm in test [4] was found to be 100%.
Compound `CC(C)N=C1SCN(c2ccc(Cl)c(Cl)c2)C(=O)N1C(C)C` [Compound 415] displayed a mortality at 400 ppm in test [3] of 100%. The compound also returned a mortality at 1000 ppm in test [4] of 100%.
`CC(C)N1C(=O)N(c2ccc(Cl)c(Cl)c2)CSC1=NC(C)(C)C` [Compound 416, 2-t-Butylimino-3-isopropyl-5-(3,4-dichlorophenyl)-tetrahydro-1,3,5-thiadiazin-4-one] came in with a mortality at 400 ppm in test [3] of 100%. In test [4], this compound gave a mortality at 1000 ppm of 100%.
Consider `C=CCN1C(=O)N(c2ccc(Cl)c(Cl)c2)CSC1=NC(C)C` [Compound 421], for which the mortality at 400 ppm in test [3] came out at 60%. Further, the mortality at 1000 ppm in test [4] turned out to be 70%.
`CC(C)N1C(=O)N(c2ccc(Cl)c(Cl)c2)CSC1=NC1CCCCC1` [Compound 425] yielded a mortality at 400 ppm in test [3] of 60%. This compound yielded a mortality at 1000 ppm in test [4] of 100%.
Regarding `CCN1C(=O)N(c2cc(Cl)ccc2Cl)CSC1=NC(C)(C)C` [Compound 426], the mortality at 400 ppm in test [3] is 70%. In addition, the mortality at 1000 ppm in test [4] came to 100%.
The corresponding values for `CC(C)N1C(=O)N(c2cc(Cl)ccc2Cl)CSC1=NC(C)(C)C` [Compound 427] are 100% and 100%.
The like results for `CCC(C)N1C(=O)N(c2cc(Cl)ccc2Cl)CSC1=NC(C)(C)C` (centres unmarked) [Compound 428] were, in that order, 100% and 100%.
